PubChem BioAssay AID256 (DTP/NCI, 2004)
“And” between values parts separate entries of the source, which are not always exact repeats. Equal values may be shown once. Inconclusive results and toxic doses are left out. Non-standard residues stand in square brackets, D forms with d. Residues, ends and D or L forms follow the SMILES beside them. ξ: configuration not given here. *: point of attachment. ξE = NC(CCC(=O)O)C(=O)O; Cbz = O=C(OCc1ccccc1)*; OBn = c1ccc(CO*)cc1

Tested on: CD2F1 mice, L1210 leukemia ip, survival T/C
Test: NCI In Vivo Anticancer Drug Screen. Data for tumor model L1210 Leukemia (intraperitoneal) in CD2F1 (CDF1) mice
Settings: higher = longer survival
Outline: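 Activity against a transplanted murine tumor was judged by comparing the compound group with a vehicle group. The outcome in the treated animals was divided by that in the controls.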

[1] = endpoint: mean survival time, dose: 200.0 mg/kg/injection, schedule: Q01DX009 (ip), vehicle: Klucel (hydroxypropylcellulose) (HPC)
[2] = endpoint: mean survival time, dose: 100.0 mg/kg/injection, schedule: Q04DX003 (ip), vehicle: saline with Tween-80
[3] = endpoint: mean survival time, dose: 200.0 mg/kg/injection, schedule: Q04DX003 (ip), vehicle: saline with Tween-80
[4] = endpoint: mean survival time, dose: 400.0 mg/kg/injection, schedule: Q04DX003 (ip), vehicle: saline with Tween-80
[5] = endpoint: mean survival time, dose: 25.0 mg/kg/injection, schedule: Q04DX003 (ip), vehicle: saline with Tween-80
[6] = endpoint: mean survival time, dose: 50.0 mg/kg/injection, schedule: Q04DX003 (ip), vehicle: saline with Tween-80
[7] = endpoint: mean survival time, dose: 50.0 mg/kg/injection, schedule: Q01DX009 (ip), vehicle: saline with Tween-80
[8] = endpoint: mean survival time, dose: 100.0 mg/kg/injection, schedule: Q01DX009 (ip), vehicle: saline with Tween-80
[9] = endpoint: mean survival time, dose: 200.0 mg/kg/injection, schedule: Q01DX009 (ip), vehicle: saline with Tween-80
[10] = endpoint: mean survival time, dose: 400.0 mg/kg/injection, schedule: Q01DX009 (ip), vehicle: saline with Tween-80

CC(=O)Nc1cccc(N=NN(C)C)c1
T/C (endpoint: mean survival time, dose: 12.5 mg/kg/injection, schedule: Q01DX009 (ip), vehicle: Klucel (hydroxypropylcellulose) (HPC)): 113 % of control | T/C (endpoint: mean survival time, dose: 50.0 mg/kg/injection, schedule: Q01DX009 (ip), vehicle: Klucel (hydroxypropylcellulose) (HPC)): 151 % of control | T/C [1]: 87 % of control

COC(=N)CC(=O)C(C)(C)C
T/C (endpoint: mean survival time, dose: 100.0 mg/kg/injection, schedule: Q01DX001 (ip), vehicle: other): 102 % of control | T/C (endpoint: mean survival time, dose: 200.0 mg/kg/injection, schedule: Q01DX001 (ip), vehicle: other): 97 % of control | T/C (endpoint: mean survival time, dose: 400.0 mg/kg/injection, schedule: Q01DX001 (ip), vehicle: other): 97 % of control

N#CCCCN1CCOCC1
T/C (endpoint: mean survival time, dose: 100.0 mg/kg/injection, schedule: Q01DX009 (ip), vehicle: saline): 101 % of control | T/C (endpoint: mean survival time, dose: 200.0 mg/kg/injection, schedule: Q01DX009 (ip), vehicle: saline): 102 % of control | T/C (endpoint: mean survival time, dose: 400.0 mg/kg/injection, schedule: Q01DX009 (ip), vehicle: saline): 98 % of control

CC(C)(C)OC(=O)NCCCC(N)C(=O)O (stereo not drawn)
T/C [2]: 92 % of control | T/C [3]: 94 % of control | T/C [4]: 94 % of control

CCCCNc1c(C(=O)N2CCCCC2)cnc2c1cnn2CC
T/C (endpoint: mean survival time, dose: 100.0 mg/kg/injection, schedule: Q04DX003 (ip), vehicle: saline): 97 % of control | T/C (endpoint: mean survival time, dose: 200.0 mg/kg/injection, schedule: Q04DX003 (ip), vehicle: saline): 101 % of control

OCCNC(=S)Nc1ccccc1
T/C (endpoint: mean survival time, dose: 7.5 mg/kg/injection, schedule: Q01DX009 (ip), vehicle: saline): 97 % of control | T/C (endpoint: mean survival time, dose: 15.0 mg/kg/injection, schedule: Q01DX009 (ip), vehicle: saline): 95 % of control | T/C [5]: 98 % of control | T/C (endpoint: mean survival time, dose: 30.0 mg/kg/injection, schedule: Q01DX009 (ip), vehicle: saline): 89 % of control | T/C [6]: 101 % of control | T/C [2]: 100 % of control

COc1ccc(C(=O)CC(=O)Nc2ccc([N+](=O)[O-])cc2)cc1
T/C (endpoint: mean survival time, dose: 100.0 mg/kg/injection, schedule: Q01DX009 (ip), vehicle: Klucel (hydroxypropylcellulose) (HPC)): 98 % of control | T/C [2]: 107 % of control | T/C [1]: 97 % of control | T/C [3]: 102 % of control | T/C (endpoint: mean survival time, dose: 400.0 mg/kg/injection, schedule: Q01DX009 (ip), vehicle: Klucel (hydroxypropylcellulose) (HPC)): 97 % of control | T/C [4]: 101 % of control

Brc1nc(Br)c(Br)[nH]1
T/C (endpoint: mean survival time, dose: 25.0 mg/kg/injection, schedule: Q01DX009 (ip), vehicle: saline with Tween-80): 86 % of control | T/C [7]: 95 % of control | T/C [8]: 92 % of control | T/C [2]: 100 % of control

O=C(CNC(=O)OCc1ccccc1)NCC(=O)NC(CCC(=O)OCc1ccccc1)C(=O)OCc1ccccc1 (stereo not drawn) (Cbz-Gly-Gly-[ξE](OBn)-OBn)
T/C (endpoint: mean survival time, dose: 100.0 mg/kg/injection, schedule: Q04DX003 (ip), vehicle: other): 95 % of control | T/C (endpoint: mean survival time, dose: 200.0 mg/kg/injection, schedule: Q04DX003 (ip), vehicle: other): 91 % of control | T/C (endpoint: mean survival time, dose: 400.0 mg/kg/injection, schedule: Q04DX003 (ip), vehicle: other): 95 % of control

CCCCCCCCCCNC1=C(Cl)C(=O)c2ccccc2C1=O
T/C [5]: 98 % of control | T/C [6]: 94 % of control | T/C [2]: 95 % of control

O=C(CNC(=O)Nc1cccc(C(F)(F)F)c1)N/N=C/c1ccco1
T/C [7]: 92 % of control | T/C [8]: 92 % of control | T/C [9]: 88 % of control

O=C1CSC(c2cccs2)N1c1nncs1 (stereo not drawn)
T/C (endpoint: median survival time, dose: 25.0 mg/kg/injection, schedule: Q01DX005 (ip), vehicle: Klucel (hydroxypropylcellulose) (HPC)): 94 % of control | T/C (endpoint: median survival time, dose: 50.0 mg/kg/injection, schedule: Q01DX005 (ip), vehicle: Klucel (hydroxypropylcellulose) (HPC)): 102 % of control and 104 % of control and 110 % of control | T/C (endpoint: median survival time, dose: 100.0 mg/kg/injection, schedule: Q01DX005 (ip), vehicle: Klucel (hydroxypropylcellulose) (HPC)): 94 % of control and 96 % of control and 103 % of control | T/C (endpoint: median survival time, dose: 200.0 mg/kg/injection, schedule: Q01DX005 (ip), vehicle: Klucel (hydroxypropylcellulose) (HPC)): 116 % of control and 94 % of control (2×) | T/C (endpoint: median survival time, dose: 400.0 mg/kg/injection, schedule: Q01DX005 (ip), vehicle: Klucel (hydroxypropylcellulose) (HPC)): 107 % of control | T/C (endpoint: median survival time, dose: 800.0 mg/kg/injection, schedule: Q01DX005 (ip), vehicle: Klucel (hydroxypropylcellulose) (HPC)): 115 % of control

O=C(Sc1nc2ccccc2s1)c1ccccc1
T/C (endpoint: mean survival time, dose: 100.0 mg/kg/injection, schedule: Q01DX001 (ip), vehicle: saline): 95 % of control | T/C (endpoint: mean survival time, dose: 200.0 mg/kg/injection, schedule: Q01DX001 (ip), vehicle: saline): 97 % of control | T/C (endpoint: mean survival time, dose: 400.0 mg/kg/injection, schedule: Q01DX001 (ip), vehicle: saline): 115 % of control

CC1=C(C)C(=O)C(CC2=C(C)C(=O)C(C)=C(C)C2=O)=C(C)C1=O
T/C (endpoint: mean survival time, dose: 100.0 mg/kg/injection, schedule: Q04DX002 (ip), vehicle: saline with Tween-80): 102 % of control | T/C (endpoint: mean survival time, dose: 200.0 mg/kg/injection, schedule: Q04DX002 (ip), vehicle: saline with Tween-80): 91 % of control | T/C (endpoint: mean survival time, dose: 400.0 mg/kg/injection, schedule: Q04DX002 (ip), vehicle: saline with Tween-80): 109 % of control

COc1cc2c(c(OC)c1OC)-c1ccc(SC)c(=O)cc1[C@@H](NC1OC(CO)C(O)C(O)C1O)CC2 (stereo partly drawn)
T/C (endpoint: mean survival time, dose: 3.13 mg/kg/injection, schedule: Q01DX009 (ip), vehicle: saline): 117 % of control

Fc1c(F)c(F)c(Nc2c(F)c(F)c3c(F)c(F)c(F)c(F)c3c2F)c(F)c1F
T/C (endpoint: mean survival time, dose: 100.0 mg/kg/injection, schedule: Q01DX001 (ip), vehicle: saline with Tween-80): 98 % of control | T/C (endpoint: mean survival time, dose: 200.0 mg/kg/injection, schedule: Q01DX001 (ip), vehicle: saline with Tween-80): 96 % of control | T/C (endpoint: mean survival time, dose: 400.0 mg/kg/injection, schedule: Q01DX001 (ip), vehicle: saline with Tween-80): 98 % of control

Cc1cn(C2CC(OP(=O)(O)OCC3OC(n4cc(C)c(=O)[nH]c4=O)CC3OP(=O)(O)OCC3OC(n4cc(C)c(=O)[nH]c4=O)CC3OP(=O)(O)OCC3OC(n4cc(C)c(=O)[nH]c4=O)CC3OP(=O)(O)OCC3OC(n4ccc(N)nc4=O)C(O)C3O)C(CO)O2)c(=O)[nH]c1=O (stereo not drawn)
T/C (endpoint: median survival time, dose: 25.0 mg/kg/injection, schedule: Q01DX005 (ip), vehicle: saline): 111 % of control | T/C (endpoint: median survival time, dose: 50.0 mg/kg/injection, schedule: Q01DX005 (ip), vehicle: saline): 114 % of control | T/C (endpoint: median survival time, dose: 100.0 mg/kg/injection, schedule: Q01DX005 (ip), vehicle: saline): 124 % of control

CC1=C2CC3C(CC2(C)C(=O)C=C1)OC(=O)C3C (stereo not drawn)
T/C [2]: 93 % of control | T/C [3]: 89 % of control | T/C [4]: 98 % of control

O/N=C1/CCCC/C1=C/c1ccccc1Cl
T/C [8]: 95 % of control | T/C [9]: 97 % of control | T/C [10]: 100 % of control

O=C(O)c1cc([N+](=O)[O-])ccc1Br
T/C [2]: 103 % of control | T/C [3]: 105 % of control | T/C [4]: 95 % of control

C=CCN(CC=C)C(=S)Nc1cccc(Br)c1
T/C (endpoint: mean survival time, dose: 100.0 mg/kg/injection, schedule: Q01DX009 (ip), vehicle: other): 96 % of control | T/C (endpoint: mean survival time, dose: 200.0 mg/kg/injection, schedule: Q01DX009 (ip), vehicle: other): 95 % of control | T/C (endpoint: mean survival time, dose: 400.0 mg/kg/injection, schedule: Q01DX009 (ip), vehicle: other): 101 % of control

c1coc(CNc2ncnc3c2ncn3CCCCCCn2cnc3c(NCc4ccco4)ncnc32)c1
T/C (endpoint: mean survival time, dose: 1.0 mg/kg/injection, schedule: Q01DX005 (ip), vehicle: other): 95 % of control | T/C (endpoint: mean survival time, dose: 2.0 mg/kg/injection, schedule: Q01DX005 (ip), vehicle: other): 92 % of control | T/C (endpoint: mean survival time, dose: 4.0 mg/kg/injection, schedule: Q01DX005 (ip), vehicle: other): 95 % of control | T/C (endpoint: mean survival time, dose: 16.0 mg/kg/injection, schedule: Q01DX005 (ip), vehicle: other): 95 % of control

Nc1ccc(N)c(N)c1
T/C (endpoint: mean survival time, dose: 100.0 mg/kg/injection, schedule: Q04DX002 (ip), vehicle: saline): 97 % of control | T/C (endpoint: mean survival time, dose: 200.0 mg/kg/injection, schedule: Q04DX002 (ip), vehicle: saline): 90 % of control | T/C (endpoint: mean survival time, dose: 400.0 mg/kg/injection, schedule: Q04DX002 (ip), vehicle: saline): 97 % of control

CCS(=O)(=O)/C=C(\I)C(C)(C)C
T/C [8]: 97 % of control | T/C [2]: 98 % of control | T/C [9]: 102 % of control | T/C [3]: 102 % of control | T/C [10]: 100 % of control | T/C [4]: 95 % of control
